Measurements from US4670469A, “Hydroxamic acid and pharmaceutical preparations containing the same” (VEB Arzneimittelwerk Dresden, priority 1983, dated 1987).
Read-outs that look alike come from different tables or passages of the source.

Key:
[1] = biological target: T1, lipoxygenase from rabbit reticulocytes (Oryctolagus cuniculus, UniProt P12530); experiment: Inhibition of the activity of lipoxygenase from rabbit reticulocytes (oxygen consumption, Clark electrode); assay type: biochemical; details: for IC84: read-out: I84
T1 construct: The lipoxygenase from rabbit reticulocytes is obtained in electrophoretically and immunologically pure form; from tissue; host or cells: rabbit reticulocytes
T1 sequence (P12530 1-663): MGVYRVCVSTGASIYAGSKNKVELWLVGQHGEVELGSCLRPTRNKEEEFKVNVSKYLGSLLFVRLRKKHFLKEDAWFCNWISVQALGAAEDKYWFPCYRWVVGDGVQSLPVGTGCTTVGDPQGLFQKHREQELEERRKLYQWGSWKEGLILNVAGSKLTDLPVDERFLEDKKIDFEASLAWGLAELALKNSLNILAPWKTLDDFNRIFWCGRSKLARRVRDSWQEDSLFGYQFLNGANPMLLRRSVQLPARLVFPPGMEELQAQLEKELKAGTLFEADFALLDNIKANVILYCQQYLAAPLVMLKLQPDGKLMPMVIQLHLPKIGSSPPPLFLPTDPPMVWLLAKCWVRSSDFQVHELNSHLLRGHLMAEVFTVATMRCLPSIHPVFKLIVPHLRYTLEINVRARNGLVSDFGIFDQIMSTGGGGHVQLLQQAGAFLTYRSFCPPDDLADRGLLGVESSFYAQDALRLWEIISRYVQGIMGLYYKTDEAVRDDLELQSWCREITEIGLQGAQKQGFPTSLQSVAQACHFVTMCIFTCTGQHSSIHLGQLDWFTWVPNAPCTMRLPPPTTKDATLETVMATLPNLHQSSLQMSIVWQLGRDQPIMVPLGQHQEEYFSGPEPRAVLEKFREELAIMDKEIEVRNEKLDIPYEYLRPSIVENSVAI
Experimental: The lipoxygenase from rabbit reticulocytes was obtained in electrophoretically and immunologically pure form according to a technique known from the literature (S. M. Rapoport et al. Methods in Enzymology 71, 430 (1981)). The determination of lipoxygenase activity follows at 25° C. through the polarographic measurement of the oxygen consumption by means of Clark Electrode in a standardized system.
Through variation of the substance concentrations, the titration curves of the inhibition and therefrom the inhibition concentrations (I-value) of the compounds can be determined.
The testing of compounds for antiasthmatic, antiallergenic, inflammation-inhibiting and antithrombotic activity on the basis on the inhibition of the lipoxygenase reaction of the arachidonic acid cascade follows in a molecular/pharmacological test system. […] The lipoxygenase from rabbit reticulocytes is obtained in electrophoretically and immunologically pure form according to the techniques described in the literature (supra). The determination of the lipoxygenase activity follows at 25° C. through the polorographic measurement of oxygen consumption by means of a Clark-electrode in the following system: 0.1M potassiumphosphate, pH 7.4, with 0.2 percent sodium cholate and 0.53 mM linoleic acid. The enzyme concentration in the measurement preparation came to 25 nM. The compounds to be tested are dissolved in methylglycol (freshly distilled in a vacuum) and pre-incubated for 15 minutes at the measuring temperature in the absence of sodium cholate and linoleic acid. […] The enzyme reaction is started by the addition of sodium cholate and linoleic acid.

[2] = test system: guinea pig lung strips; experiment: Arachidonic acid-induced spasm of isolated guinea pig lung strips; details: active substance 100 μM
Text: They display in animal experimental tests on isolated lung strips from guinea pigs a pronounced antiasthmatic effect. The testing of the mentioned pharmacological characteristics follows according to the principles of measuring techniques known from the literature, which come into use in modified form (G. M. Drazen et al. G. Clin. Invest. 63 1 (1979); M. W. Schneider and G. M. Drazen Amer. Rev. Resp. Dis. 121 835 (1980); S. S. Yen and W. Kreutner, Agents Actions 10 274 (1980); S. S. Yen Prostaglandins 22, 183 (1981)).
The compounds of Formula I effect a significant restraint on arachidonic acid-induced bronchial constriction (1.5.10^-5 M arachidonic acid) in the guinea pig lung preparations (see, Example 6). Also with the addition of a cyclooxygenase inhibitor to the measuring system this effect was unaltered, and to some extent stronger, detectably. These experimental results permit without a doubt the conclusion that the compounds of Formula I involve inhibitors of the lipoxygerase pathway of arachidonic utilization, and the above described pharmacological effect is grounded upon this mechanism of activity.
(§1) The testing of the compounds for antiasthmatic activity follows on isolated lung strips and isolated tracheal rings from guinea pigs according to measuring methods known from the literature (supra) in modified form. The measurements follow in thermostatically controlled organ bath, isotonically using a contraction measuring arrangement with lift receiver, measuring coil, measuring amplifier (inductive measurement with the aid of a high frequency resonant circuit). The gasification follows with air. The suspension solution has the following composition: 39.46 g NaCl, 2.2 g KCl, 6.07 g Tris, 1.0 g CaCl2, 9.9 g glucose, 1.0 ml saturated MgCl2 -solution, 43 ml 1N HCl; pH 7.4.
(a) Activity on spasm of the guinea pig lung strips, induced by exogenous arachidonic acid.
The spasm is triggered by rising concentrations of arachidonic acid (concentrated solution in ethanol, stored in N2 -atmosphere) and is cumulatively measured. […] The active substance caused a highly significant displacement to the right of the Dose-Activity curves for arachidonic acid, visible by a clear elevation of the ED50 - and ED84 -values. The effect can be described through the following activity index: [formula] In an analogous manner, the index i84 is determined from the measured data.

[3] = test system: guinea pig lung strips; experiment: Activity on the basal tones of guinea pig lung strips; details: Cavia porcellus, basal tone, cumulative dose-activity curve
Text: as §1
(c) Activity on the basal tones of guinea pig lung strips.
Increasing concentrations of the active substance are added to the suspension medium. There occurs a dilatation, which is cumulatively measured. From the Dose-Activity-curves are provided the following parameters: […]

[4] = test system: thrombocyte aggregation; experiment: Arachidonic acid-induced thrombocyte aggregation in thrombocyte-rich plasma; assay type: cell-based, humans; details: Homo sapiens; 0.8 mM arachidonic acid; concentration giving total restraint of aggregation
Text: Since with the new medicines the restraints of lipoxygenase has been identified as a molecular type of attack, also their influence on the thrombocyte-aggregation has been tested. The essential role of the lipoxygenase pathway for irreversibility of the thrombocyte aggregation is now known. (C. E. Dutilh et al. Prostaglandins and Medicine 6, 111 (1981)). The key role is attributed to the irreversibility of the thrombocyte aggregation in the pathogenesis of thrombotic illnesses. […] In the experiments, the thrombocyte aggregation was triggered either by means of arachidonic acid or by means of platelet activation factor (PAF-Acether).
The testing of the compounds for antithrombotic and thrombolytic activity follows in authentic cell systems of humans in vitro. Thrombocyte-rich plasma from the blood of healthy donors is obtained by centrifugation at 1,000×g. The measurement of the thrombocyte aggregation follows by means of an aggregometer based upon diffuse light scattering or light absorption of the produced cell aggregate. The thrombocyte-rich plasma is pre-incubated at 37° C. for 3 minutes with the active substance or substances; thereafter the thrombocyte aggregation is triggered through the addition of either 0.8 mM arachidonic acid or 1 μM platelet activation factor (PAF-acether). The preparations are then stirred with a velocity of 800 rpm. Indeed according to the employed active substance concentration there occurs either a strong delay or a complete inhibition of the thrombocyte aggregation.

[5] = test system: guinea pig trachia; experiment: Carbachol-induced spasm of guinea pig trachea; details: Cavia porcellus; spasm triggered by 3.9 μM carbachol; read-out: active substance concentration at which strong to very strong dilatation was clearly determinable
Text: as §1
(b) Activity on the carbachol-induced spasm of guinea pig trachia
The spasms are triggered by 3.9 μM carbachol.

[6] = 25° C., pH 7.4, 0.53 mM linoleic acid, 15 min pre-incubation, read-out: I50
[7] = 25° C., pH 7.4, 0.53 mM linoleic acid, 15 min pre-incubation

O=C(NO)c1ccc2ccccc2c1O [1-hydroxy-2-naphthylhydroxamic acid]
IC50 [1, 6]: 47 µM | IC84 [1, 7]: 500 µM

CCC(Oc1cccc2ccccc12)C(=O)NO (centres unmarked) [2(1'-naphthoxy)-2-ethyl-acethydroxamic acid]
IC50 [1, 6]: 42 µM | IC84 [1, 7]: 130 µM

O=C(COc1cccc2ccccc12)NO [2(1'-naphthoxy)-acethydroxamic acid]
IC50 [1, 6]: 25 µM | IC84 [1, 7]: 60 µM

CCC(Oc1ccc2ccccc2c1)C(=O)NO (centres unmarked) [2(2'-naphthoxy)-2-ethyl-acethydroxamic acid]
IC50 [1, 6]: 32 µM

CC(C)C(Oc1ccc2ccccc2c1)C(=O)NO (centres unmarked) [2(2'-naphthoxy)-2-i-propyl-acethydroxamic acid]
IC50 [1, 6]: 27 µM

CC(Oc1ccc2ccccc2c1)C(=O)NO (centres unmarked) [2(2'-naphthoxy)-2-methyl-acethydroxamic acid]
IC50 [1, 6]: 40 µM | IC84 [1, 7]: 120 µM

CCCCC(Oc1ccc2ccccc2c1)C(=O)NO (centres unmarked) [2(2'-naphthoxy)-2-n-butyl-acethydroxamic acid]
IC50 [1, 6]: 19 µM

CCCCCCCCCC(Oc1ccc2ccccc2c1)C(=O)NO (centres unmarked) [2(2'-naphthoxy)-2-n-nonyl-acethydroxamic acid]
IC50 [1, 6]: 1.5 µM | IC84 [1, 7]: 4.8 µM

CCCCCCCCC(Oc1ccc2ccccc2c1)C(=O)NO (centres unmarked) [2(2'-naphthoxy)-2-n-octyl-acethydroxamic acid]
IC50 [1, 6]: 2.3 µM | IC84 [1, 7]: 7 µM

CCCC(Oc1ccc2ccccc2c1)C(=O)NO (centres unmarked) [2(2'-naphthoxy)-2-n-propyl-acethydroxamic acid]
IC50 [1, 6]: 24 µM

O=C(CCOc1ccc2ccccc2c1)NO [3(2'-naphthoxy)-n-propylhydroxamic acid, 3(2'-naphthoxy)-propylhydroxamic acid]
IC50 [1, 6]: 7 µM | IC84 [1, 7]: 15 µM

COc1ccc(O)c(C(C)(C)C)c1 [3-tert.-butyl-4-hydroxy-anisol, reference compound]
IC50 [1]: 160 µM | activity index i50 (displacement of arachidonic acid ED50) [2]: 4.6 | activity index i84 (displacement of arachidonic acid ED84) [2]: 3.6 | EC50 ([3]; read-out: ED50 (dilatation)): 61 µM | EC84 ([3]; read-out: ED84 (dilatation)): 130 µM

O=C(CCCOc1ccc2ccccc2c1)NO [4(2'-naphthoxy)-n-butyl-hydroxamic acid, 4(2'-naphthoxy)-butylhydroxamic acid]
IC50 [1, 6]: 4 µM | IC84 [1, 7]: 7.5 µM

O=[N+]([O-])c1ccc(O)c(O)c1 [4-nitrocatechol, reference compound]
IC50 [1, 6]: 4.6 µM | IC84 [1, 7]: 16 µM | IC100 [4]: 60 µM

O=C(CCCCOc1ccc2ccccc2c1)NO [5(2'-naphthoxy)valerylhydroxamic acid, 5(2'-naphthoxy)-valerylhydroxamic acid]
IC50 [1, 6]: 3.5 µM | IC84 [1, 7]: 6.4 µM

CCCCCCCCC#CCC#CCC#CCCCC(=O)O [5,8,11-eicosatriicacid, reference compound]
IC50 [1, 6]: 1.3 µM

O=C(CCCCCCCOc1ccc2ccccc2c1)NO [8(2'-naphthoxy)-octylhydroxamic acid]
IC50 [1, 6]: 2.1 µM | IC84 [1, 7]: 4.6 µM

NC1=NN(c2cccc(C(F)(F)F)c2)CC1 [BW 755 C, 3-amino-N-(3-trifluoromethylphenyl)-pyrazoline-(2), reference compound]
IC50 [1, 6]: 20 µM

CC(Cc1ccc(O)c(O)c1)C(C)Cc1ccc(O)c(O)c1 (centres unmarked) [nordihydroguaiaretic acid, reference compound]
minimal effective concentration [5]: 50 µM
